According to patent publication US20100048722A1, “FORMATION OF ACCUMBENS GluR2-LACKING AMPA RECEPTORS MEDIATES […] COCAINE CRAVING” (ROSALIND FRANKLIN UNIVERSITY OF MEDICINE AND SCIENCE, priority 2008, published 2010):
Like-named read-outs stand apart in the source and are kept apart here.

Test system: GluR2-lacking AMPA receptors
Conditions: injection into accumbens 15 min before extinction test
Method: Male rats were trained to nose-poke (biochemical and electrophysiology experiments) or lever-press (Naspm accumbens injections experiment) for 6-h/day for 10-12 days; each cocaine infusion was paired with a tone-light or light cue. After self-administration training, the rats were tested for cue-induced cocaine-seeking after 1 or 45 withdrawal days. During testing, lever or nose-poke responding led to contingent presentations of the cue previously paired with cocaine infusions, but not cocaine. Responding on the previously active lever or hole was the operational measure of cocaine-seeking.
The rats were anesthetized using isoflurane gas (Henry Schein, Melville, N.Y.) and flunixin meglumine was administered before surgery (2 mg/kg, i.p.) as an analgesic. A silastic catheter was inserted into the right auricle through the external jugular vein, passed under the skin and fixed in the mid-scapular region. The rats recovered from surgery for at least seven days prior to beginning self-administration training sessions. During this time, catheters were flushed every 24-48 h with sterile 0.9% saline. […]

Structure (SMILES): Cl.Cl.Cl.NCCCNCCCCNCCCNC(=O)Cc1cccc2ccccc12 [Naspm, 1-Naphthylacetyl spermine trihydrochloride]
- cue-induced cocaine-seeking (responses on previously active lever) (withdrawal day 1): did not alter
- cue-induced cocaine-seeking (responses on previously active lever) (withdrawal day 45): significantly reduced
